Results reported in US20260297081A1, “COMPOUNDS AND METHODS OF TREATING CANCERS” (Cullgen Inc., priority 2023, published 2026).

Tests used:
MCF7 cells = experiment: Anti-proliferation (viability) of MCF7 cells (Table 7, FIG. 2B); type: cell-based; conditions: Homo sapiens, MCF7, MCF7 cells, 3-6 days, 10-point serial dilution; read-out: GI IC50 in MCF-7
CDK4 = CDK4 (Homo sapiens, UniProt P11802+Q16531); experiment: HiBiT detection of HiBiT-tagged CDK4 protein level in MCF7 cells, 16 hours (Table 8); type: cell-based; parameters: expressed in transfected cells; host or cells: MCF7; conditions: MCF7 cells stably expressing HiBiT tagged target proteins; for activity at 0.01 µM: 10 nM, read-out: % CDK4 Relative Level (10 nM); for activity at 0.1 µM: 100 nM, read-out: % CDK4 Relative Level (100 nM)
Experimental: HiBiT detection system quantitatively measures total amounts of HiBiT-tagged proteins using a luminescent based method. MCF7 cells stably expressing HiBiT tagged target proteins were treated with heterobifunctional compounds at indicated concentrations for 16 hours, then lysed with Nano-Glo HiBiT Lytic detection reagents.

Sequence of CDK4 (P11802 whole entry): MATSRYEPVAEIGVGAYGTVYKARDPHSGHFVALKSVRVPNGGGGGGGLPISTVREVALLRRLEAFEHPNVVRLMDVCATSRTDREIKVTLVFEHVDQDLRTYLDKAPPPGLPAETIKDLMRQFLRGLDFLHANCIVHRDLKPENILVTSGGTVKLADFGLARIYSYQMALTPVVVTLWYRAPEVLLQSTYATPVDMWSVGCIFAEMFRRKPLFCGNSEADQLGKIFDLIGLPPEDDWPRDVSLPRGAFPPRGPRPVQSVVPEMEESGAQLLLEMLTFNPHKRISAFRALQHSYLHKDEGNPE
Sequence of CDK4 (P24385 whole entry partner): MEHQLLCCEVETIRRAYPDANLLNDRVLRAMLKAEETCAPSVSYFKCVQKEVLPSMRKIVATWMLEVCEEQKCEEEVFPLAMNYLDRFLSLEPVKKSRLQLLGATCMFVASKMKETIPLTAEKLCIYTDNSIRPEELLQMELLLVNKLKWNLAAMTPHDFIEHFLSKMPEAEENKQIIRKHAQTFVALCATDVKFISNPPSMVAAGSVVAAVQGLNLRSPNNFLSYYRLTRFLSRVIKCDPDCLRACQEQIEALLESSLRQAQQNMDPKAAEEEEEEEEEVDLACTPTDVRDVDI
Sequence of CDK4 (Q16531 2-1140 limits assumed): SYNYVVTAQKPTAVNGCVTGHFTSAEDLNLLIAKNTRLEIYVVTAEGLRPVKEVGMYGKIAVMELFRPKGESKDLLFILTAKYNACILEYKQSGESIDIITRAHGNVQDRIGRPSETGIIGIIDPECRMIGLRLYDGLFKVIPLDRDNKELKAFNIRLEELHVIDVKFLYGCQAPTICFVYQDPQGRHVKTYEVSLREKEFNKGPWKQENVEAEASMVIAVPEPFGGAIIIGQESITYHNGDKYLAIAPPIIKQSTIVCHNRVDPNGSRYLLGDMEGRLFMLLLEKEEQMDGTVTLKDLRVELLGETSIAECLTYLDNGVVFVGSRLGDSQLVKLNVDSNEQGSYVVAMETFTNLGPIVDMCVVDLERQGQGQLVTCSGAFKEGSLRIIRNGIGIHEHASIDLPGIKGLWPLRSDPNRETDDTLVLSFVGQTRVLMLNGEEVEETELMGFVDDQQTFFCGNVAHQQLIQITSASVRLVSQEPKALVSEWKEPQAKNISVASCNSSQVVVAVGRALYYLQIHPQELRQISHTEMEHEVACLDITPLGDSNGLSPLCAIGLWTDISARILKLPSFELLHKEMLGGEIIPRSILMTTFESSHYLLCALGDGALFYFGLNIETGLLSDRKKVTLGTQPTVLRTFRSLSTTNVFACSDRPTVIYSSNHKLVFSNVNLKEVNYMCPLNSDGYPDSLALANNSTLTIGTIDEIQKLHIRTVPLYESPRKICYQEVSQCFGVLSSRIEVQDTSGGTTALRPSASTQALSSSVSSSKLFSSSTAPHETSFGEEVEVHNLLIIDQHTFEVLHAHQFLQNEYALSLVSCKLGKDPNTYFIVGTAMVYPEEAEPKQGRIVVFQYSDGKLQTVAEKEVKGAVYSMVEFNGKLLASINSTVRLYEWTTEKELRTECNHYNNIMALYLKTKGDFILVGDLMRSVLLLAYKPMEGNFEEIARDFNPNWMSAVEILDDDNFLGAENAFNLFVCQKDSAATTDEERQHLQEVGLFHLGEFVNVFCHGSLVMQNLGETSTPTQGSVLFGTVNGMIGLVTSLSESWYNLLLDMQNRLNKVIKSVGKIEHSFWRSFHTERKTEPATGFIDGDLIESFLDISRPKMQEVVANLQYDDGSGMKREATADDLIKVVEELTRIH

SMILES | IC50 (MCF7 cells) [nM] | activity at 0.01 µM (CDK4) [%] | activity at 0.1 µM (CDK4) [%]
CNc1ccc(C(=O)Nc2ccc(N(C)C)nn2)c(NCCOCCC(=O)N2CCN(c3ccc(Nc4ncc5cc(C(=O)N(C)C)n(C6CCCC6)c5n4)nc3)CC2)n1 [CPD-622, 7-cyclopentyl-2-((5-(4-(3-(2-((3-((6-(dimethylamino)pyridazin-3-yl)carbamoyl)-6-(methylamino)pyridin-2-yl)amino)ethoxy)propanoyl)piperazin-1-yl)pyridin-2-yl)amino)-N,N-dimethyl-7H-pyrrolo[2,3-d]pyrimidine-6-carboxamide] | > 100 | 55 to 85 | 55 to 85
CNc1ccc(C(=O)Nc2ccc(N(C)C)nn2)c(NCCCNC(=O)CN2CCN(c3ccc(Nc4ncc5cc(C(=O)N(C)C)n(C6CCCC6)c5n4)nc3)CC2)n1 [CPD-625, 7-cyclopentyl-2-((5-(4-(2-((3-((3-((6-(dimethylamino)pyridazin-3-yl)carbamoyl)-6-(methylamino)pyridin-2-yl)amino)propyl)amino)-2-oxoethyl)piperazin-1-yl)pyridin-2-yl)amino)-N,N-dimethyl-7H-pyrrolo[2,3-d]pyrimidine-6-carboxamide] | > 100 | 55 to 85 | 55 to 85
CNc1ccc(C(=O)Nc2ccc(N(C)C)nn2)c(NCCCCNC(=O)CN2CCN(c3ccc(Nc4ncc5cc(C(=O)N(C)C)n(C6CCCC6)c5n4)nc3)CC2)n1 [CPD-626, 7-cyclopentyl-2-((5-(4-(2-((4-((3-((6-(dimethylamino)pyridazin-3-yl)carbamoyl)-6-(methylamino)pyridin-2-yl)amino)butyl)amino)-2-oxoethyl)piperazin-1-yl)pyridin-2-yl)amino)-N,N-dimethyl-7H-pyrrolo[2,3-d]pyrimidine-6-carboxamide] | > 100 | 55 to 85 | 55 to 85
CNc1ccc(C(=O)Nc2ccc(N(C)C)nn2)c(NCCCCCNC(=O)CN2CCN(c3ccc(Nc4ncc5cc(C(=O)N(C)C)n(C6CCCC6)c5n4)nc3)CC2)n1 [CPD-627, 7-cyclopentyl-2-((5-(4-(2-((5-((3-((6-(dimethylamino)pyridazin-3-yl)carbamoyl)-6-(methylamino)pyridin-2-yl)amino)pentyl)amino)-2-oxoethyl)piperazin-1-yl)pyridin-2-yl)amino)-N,N-dimethyl-7H-pyrrolo[2,3-d]pyrimidine-6-carboxamide] | > 100 | 55 to 85 | 55 to 85
CNc1ccc(C(=O)Nc2ccc(N(C)C)nn2)c(NCCCCCCNC(=O)CN2CCN(c3ccc(Nc4ncc5cc(C(=O)N(C)C)n(C6CCCC6)c5n4)nc3)CC2)n1 [CPD-628, 7-cyclopentyl-2-((5-(4-(2-((6-((3-((6-(dimethylamino)pyridazin-3-yl)carbamoyl)-6-(methylamino)pyridin-2-yl)amino)hexyl)amino)-2-oxoethyl)piperazin-1-yl)pyridin-2-yl)amino)-N,N-dimethyl-7H-pyrrolo[2,3-d]pyrimidine-6-carboxamide] | > 100 | 55 to 85 | 55 to 85
CNc1ccc(C(=O)Nc2ccc(N(C)C)nn2)c(NCCCCCCCNC(=O)CN2CCN(c3ccc(Nc4ncc5cc(C(=O)N(C)C)n(C6CCCC6)c5n4)nc3)CC2)n1 [CPD-629, 7-cyclopentyl-2-((5-(4-(2-((7-((3-((6-(dimethylamino)pyridazin-3-yl)carbamoyl)-6-(methylamino)pyridin-2-yl)amino)heptyl)amino)-2-oxoethyl)piperazin-1-yl)pyridin-2-yl)amino)-N,N-dimethyl-7H-pyrrolo[2,3-d]pyrimidine-6-carboxamide] | > 100 | 55 to 85 | 55 to 85
CNc1ccc(C(=O)Nc2ccc(N(C)C)nn2)c(NCCCCCCCCNC(=O)CN2CCN(c3ccc(Nc4ncc5cc(C(=O)N(C)C)n(C6CCCC6)c5n4)nc3)CC2)n1 [CPD-630, 7-cyclopentyl-2-((5-(4-(2-((8-((3-((6-(dimethylamino)pyridazin-3-yl)carbamoyl)-6-(methylamino)pyridin-2-yl)amino)octyl)amino)-2-oxoethyl)piperazin-1-yl)pyridin-2-yl)amino)-N,N-dimethyl-7H-pyrrolo[2,3-d]pyrimidine-6-carboxamide] | > 100 | 55 to 85 | 55 to 85
CNc1ccc(C(=O)Nc2ccc(N(C)C)nn2)c(NCCCC(=O)N2CCN(c3ccc(Nc4ncc5cc6n(c5n4)C4(CCCCC4)CNC6=O)nc3)CC2)n1 [CPD-633, N-(6-(dimethylamino)pyridazin-3-yl)-6-(methylamino)-2-((4-oxo-4-(4-(6-((6′-oxo-7′,8′-dihydro-6′H-spiro[cyclohexane-1,9′-pyrazino[1′,2′:1,5]pyrrolo[2,3-d]pyrimidin]-2′-yl)amnion)pyridin-3-yl)piperazin-1-yl)butyl)amino)nicotinamide] | > 100 | 55 to 85 | > 85

Further lines, results first:

IC50 (MCF7 cells) [nM] | activity at 0.01 µM (CDK4) [%] | activity at 0.1 µM (CDK4) [%] | SMILES
> 100 | 55 to 85 | 55 to 85 | CNc1ccc(C(=O)Nc2ccc(N(C)C)nn2)c(NCCCCC(=O)N2CCN(Cc3ccc(Nc4ncc(F)c(-c5cc(F)c6nc(C)n(C(C)C)c6c5)n4)nc3)CC2)n1 [CPD-602, N-(6-(dimethylamino)pyridazin-3-yl)-2-((5-(4-((6-((5-fluoro-4-(4-fluoro-1-isopropyl-2-methyl-1H-benzo[d]imidazol-6-yl)pyrimidin-2-yl)amino)pyridin-3-yl)methyl)piperazin-1-yl)-5-oxopentyl)amino)-6-(methylamino)nicotinamide]
> 100 | 55 to 85 | 55 to 85 | CNc1ccc(C(=O)Nc2ccc(N(C)C)nn2)c(NCCCCCC(=O)N2CCN(Cc3ccc(Nc4ncc(F)c(-c5cc(F)c6nc(C)n(C(C)C)c6c5)n4)nc3)CC2)n1 [CPD-603, N-(6-(dimethylamino)pyridazin-3-yl)-2-((6-(4-((6-((5-fluoro-4-(4-fluoro-1-isopropyl-2-methyl-1H-benzo[d]imidazol-6-yl)pyrimidin-2-yl)amino)pyridin-3-yl)methyl)piperazin-1-yl)-6-oxohexyl)amino)-6-(methylamino)nicotinamide]
> 100 | > 85 | > 85 | CNc1ccc(C(=O)Nc2ccc(N(C)C)nn2)c(NCCOCCOCCC(=O)N2CCN(Cc3ccc(Nc4ncc(F)c(-c5cc(F)c6nc(C)n(C(C)C)c6c5)n4)nc3)CC2)n1 [CPD-607, N-(6-(dimethylamino)pyridazin-3-yl)-2-((2-(2-(3-(4-((6-((5-fluoro-4-(4-fluoro-1-isopropyl-2-methyl-1H-benzo[d]imidazol-6-yl)pyrimidin-2-yl)amino)pyridin-3-yl)methyl)piperazin-1-yl)-3-oxopropoxy)ethoxy)ethyl)amino)-6-(methylamino)nicotinamide]
> 100 | > 85 | 55 to 85 | CNc1ccc(C(=O)Nc2ccc(N(C)C)nn2)c(NCCNC(=O)CN2CCN(Cc3ccc(Nc4ncc(F)c(-c5cc(F)c6nc(C)n(C(C)C)c6c5)n4)nc3)CC2)n1 [CPD-608, N-(6-(dimethylamino)pyridazin-3-yl)-2-((2-(2-(4-((6-((5-fluoro-4-(4-fluoro-1-isopropyl-2-methyl-1H-benzo[d]imidazol-6-yl)pyrimidin-2-yl)amino)pyridin-3-yl)methyl)piperazin-1-yl)acetamido)ethyl)amino)-6-(methylamino)nicotinamide]
> 100 | > 85 | > 85 | CNc1ccc(C(=O)Nc2ccc(N(C)C)nn2)c(NCCCC(=O)N2CCN(c3ccc(Nc4ncc5cc(C(=O)N(C)C)n(C6CCCC6)c5n4)nc3)CC2)n1 [CPD-617, 7-cyclopentyl-2-((5-(4-(4-((3-((6-(dimethylamino)pyridazin-3-yl)carbamoyl)-6-(methylamino)pyridin-2-yl)amino)butanoyl)piperazin-1-yl)pyridin-2-yl)amino)-N,N-dimethyl-7H-pyrrolo[2,3-d]pyrimidine-6-carboxamide]
> 100 | > 85 | 55 to 85 | CNc1ccc(C(=O)Nc2ccc(N(C)C)nn2)c(NCCCCC(=O)N2CCN(c3ccc(Nc4ncc5cc(C(=O)N(C)C)n(C6CCCC6)c5n4)nc3)CC2)n1 [CPD-618, 7-cyclopentyl-2-((5-(4-(5-((3-((6-(dimethylamino)pyridazin-3-yl)carbamoyl)-6-(methylamino)pyridin-2-yl)amino)pentanoyl)piperazin-1-yl)pyridin-2-yl)amino)-N,N-dimethyl-7H-pyrrolo[2,3-d]pyrimidine-6-carboxamide]
> 100 | 55 to 85 | 55 to 85 | CNc1ccc(C(=O)Nc2ccc(N(C)C)nn2)c(NCCCCCCC(=O)N2CCN(c3ccc(Nc4ncc5cc(C(=O)N(C)C)n(C6CCCC6)c5n4)nc3)CC2)n1 [CPD-620, 7-cyclopentyl-2-((5-(4-(7-((3-((6-(dimethylamino)pyridazin-3-yl)carbamoyl)-6-(methylamino)pyridin-2-yl)amino)heptanoyl)piperazin-1-yl)pyridin-2-yl)amino)-N,N-dimethyl-7H-pyrrolo[2,3-d]pyrimidine-6-carboxamide]
> 100 | 55 to 85 | 55 to 85 | CNc1ccc(C(=O)Nc2ccc(N(C)C)nn2)c(NCCCCCCCC(=O)N2CCN(c3ccc(Nc4ncc5cc(C(=O)N(C)C)n(C6CCCC6)c5n4)nc3)CC2)n1 [CPD-621, 7-cyclopentyl-2-((5-(4-(8-((3-((6-(dimethylamino)pyridazin-3-yl)carbamoyl)-6-(methylamino)pyridin-2-yl)amino)octanoyl)piperazin-1-yl)pyridin-2-yl)amino)-N,N-dimethyl-7H-pyrrolo[2,3-d]pyrimidine-6-carboxamide]
